Laboratory results: patent US20060252807A1, “Novel ortho-terphenyl inhibitors of p38 kinase and methods of treating inflammatory disorders” (Kalypsys, Inc., priority 2005, published 2006)

biological target: T1, active p38 alpha enzyme (Upstate Biotechnology) (Homo sapiens, UniProt Q16539); assay: p38α biochemical assay (ATP turnover, luminescent detection, Cambrex PKlight); settings: p38α biochemical assay, Table 1 Biological Activity
T1 construct: purchased Upstate Biotechnology
In short: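 Active p38α phosphorylates MapkapK2 whole protein with 1.4 uM final ATP, 2 h at 30C, in Tris/MOPS buffer with MgCl2, CaCl2, EGTA, EDTA, glycerol, β-mercaptoethanol and 1 mg/ml BSA. Compounds pin-delivered from DMSO; total ATP turnover read by luminescence after PKlight addition.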

T1 sequence (Q16539 whole entry): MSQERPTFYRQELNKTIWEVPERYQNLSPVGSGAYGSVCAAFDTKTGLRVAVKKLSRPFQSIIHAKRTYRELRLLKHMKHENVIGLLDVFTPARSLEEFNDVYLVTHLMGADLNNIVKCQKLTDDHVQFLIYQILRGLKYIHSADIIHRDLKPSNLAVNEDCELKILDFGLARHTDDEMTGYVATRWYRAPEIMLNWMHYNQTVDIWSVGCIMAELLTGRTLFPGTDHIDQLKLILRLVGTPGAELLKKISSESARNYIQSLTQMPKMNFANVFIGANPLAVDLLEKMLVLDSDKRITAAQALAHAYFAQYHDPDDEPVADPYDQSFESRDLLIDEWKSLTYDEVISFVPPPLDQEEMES

SMILES | IC50 [nM]
CCCCc1ccc(C(=O)NCc2onc(-c3ccc(F)cc3)c2-c2nc(C(=O)NC(C)C)cs2)cc1 [Example 683] | > 1000
CC(C)NC(=O)c1csc(-c2c(-c3ccc(F)cc3)noc2CNC(=O)c2ccc(C(C)(C)C)cc2)n1 [Example 684] | > 1000
CC(C)NC(=O)c1csc(-c2c(-c3ccc(F)cc3)noc2CNC(=O)c2ccc(N(C)C=O)cc2)n1 [Example 685] | > 1000
CC(=O)Oc1ccc(C(=O)NCc2onc(-c3ccc(F)cc3)c2-c2nc(C(=O)NC(C)C)cs2)cc1 [Example 688] | > 1000
COC(=O)c1ccc(C(=O)NCc2onc(-c3ccc(F)cc3)c2-c2nc(C(=O)NC(C)C)cs2)cc1 [Example 689] | > 1000
CC(C)NC(=O)c1csc(-c2c(-c3ccc(F)cc3)noc2CNC(=O)Cc2ccc3c(c2)OCO3)n1 [Example 692] | > 1000
CCCOc1ccc(C(=O)NCc2onc(-c3ccc(F)cc3)c2-c2nc(C(=O)NC(C)C)cs2)cc1 [Example 693] | > 1000
CC(C)NC(=O)c1csc(-c2c(-c3ccc(F)cc3)noc2CNC(=O)c2ccc(OC(C)C)cc2)n1 [Example 694] | > 1000
Cc1cccc(C(=O)NCc2onc(-c3ccc(F)cc3)c2-c2nc(C(=O)NC(C)C)cs2)c1[N+](=O)[O-] [Example 696] | > 1000
Cc1ccc([N+](=O)[O-])c(C(=O)NCc2onc(-c3ccc(F)cc3)c2-c2nc(C(=O)NC(C)C)cs2)c1 [Example 697] | ≤ 1000
Cc1c(C(=O)NCc2onc(-c3ccc(F)cc3)c2-c2nc(C(=O)NC(C)C)cs2)cccc1[N+](=O)[O-] [Example 698] | > 1000
COc1ccc(OC)c(C(=O)NCc2onc(-c3ccc(F)cc3)c2-c2nc(C(=O)NC(C)C)cs2)c1 [Example 699] | > 1000
COc1ccc(C(=O)NCc2onc(-c3ccc(F)cc3)c2-c2nc(C(=O)NC(C)C)cs2)c(OC)c1 [Example 700] | > 1000
COc1cccc(OC)c1C(=O)NCc1onc(-c2ccc(F)cc2)c1-c1nc(C(=O)NC(C)C)cs1 [Example 701] | > 1000
COc1cc(OC)cc(C(=O)NCc2onc(-c3ccc(F)cc3)c2-c2nc(C(=O)NC(C)C)cs2)c1 [Example 702] | > 1000
COc1cccc(C(=O)NCc2onc(-c3ccc(F)cc3)c2-c2nc(C(=O)NC(C)C)cs2)c1OC [Example 703] | > 1000
Cc1ccc(SCC(=O)NCc2onc(-c3ccc(F)cc3)c2-c2nc(C(=O)NC(C)C)cs2)cc1 [Example 704] | > 1000
CC(C)NC(=O)c1csc(-c2c(-c3ccc(F)cc3)noc2CNC(=O)/C=C/c2ccc(Cl)cc2)n1 [Example 705] | > 1000
CC(C)NC(=O)c1csc(-c2c(-c3ccc(F)cc3)noc2CNC(=O)c2ccc([N+](=O)[O-])c(O)c2)n1 [Example 707] | > 1000
CC(C)NC(=O)c1csc(-c2c(-c3ccc(F)cc3)noc2CNC(=O)c2cc(O)ccc2[N+](=O)[O-])n1 [Example 708] | > 1000
CC(C)NC(=O)c1csc(-c2c(-c3ccc(F)cc3)noc2CNC(=O)c2cc(F)ccc2[N+](=O)[O-])n1 [Example 711] | > 1000
CC(C)NC(=O)c1csc(-c2c(-c3ccc(F)cc3)noc2CNC(=O)Cc2ccc(O)c(Cl)c2)n1 [Example 715] | > 1000
COc1cc(C(=O)NCc2onc(-c3ccc(F)cc3)c2-c2nc(C(=O)NC(C)C)cs2)cc(Cl)n1 [Example 716] | > 1000
CC(C)NC(=O)c1csc(-c2c(-c3ccc(F)cc3)noc2CNC(C=O)c2ccc3cc(O)ccc3c2)n1 (stereo not drawn) [Example 717] | > 1000
CC(C)NC(=O)c1csc(-c2c(-c3ccc(F)cc3)noc2CNC(=O)C(C)NC(=O)OC(C)(C)C)n1 (stereo not drawn) [Example 722] | > 1000
CC(C)NC(=O)c1csc(-c2c(-c3ccc(F)cc3)noc2CNC(=O)C(C)NC(=O)OC(C)(C)C)n1 (stereo not drawn) [Example 723] | > 1000
CC(C)NC(=O)c1csc(-c2c(-c3ccc(F)cc3)noc2CNC(=O)c2cc(F)c(F)c(O)c2F)n1 [Example 729] | > 1000
CC(C)NC(=O)c1csc(-c2c(-c3ccc(F)cc3)noc2CNC(=O)/C=C/c2ccc3c(c2)OCO3)n1 [Example 730] | > 1000
Cc1ccc(C(=O)CCC(=O)NCc2onc(-c3ccc(F)cc3)c2-c2nc(C(=O)NC(C)C)cs2)cc1 [Example 731] | > 1000
CCCCCc1ccc(C(=O)NCc2onc(-c3ccc(F)cc3)c2-c2nc(C(=O)NC(C)C)cs2)cc1 [Example 732] | > 1000

The next lines start with the values.

IC50 [nM] | SMILES
> 1000 | CC(C)NC(=O)c1csc(-c2c(-c3ccc(F)cc3)noc2CNC(=O)c2cc3ccccc3s2)n1 [Example 682]
> 1000 | CC(=O)Nc1cccc(C(=O)NCc2onc(-c3ccc(F)cc3)c2-c2nc(C(=O)NC(C)C)cs2)c1 [Example 686]
> 1000 | CC(C)NC(=O)c1csc(-c2c(-c3ccc(F)cc3)noc2CNC(=O)COc2ccccc2C=O)n1 [Example 687]
> 1000 | CC(=O)Oc1cccc(C(=O)NCc2onc(-c3ccc(F)cc3)c2-c2nc(C(=O)NC(C)C)cs2)c1 [Example 690]
≤ 1000 | CC(=O)Oc1ccccc1C(=O)NCc1onc(-c2ccc(F)cc2)c1-c1nc(C(=O)NC(C)C)cs1 [Example 691]
> 1000 | Cc1cccc([N+](=O)[O-])c1C(=O)NCc1onc(-c2ccc(F)cc2)c1-c1nc(C(=O)NC(C)C)cs1 [Example 695]
> 1000 | CC(C)NC(=O)c1csc(-c2c(-c3ccc(F)cc3)noc2CNC(=O)/C=C/c2ccccc2Cl)n1 [Example 706]
> 1000 | CC(C)NC(=O)c1csc(-c2c(-c3ccc(F)cc3)noc2CNC(=O)c2cc([N+](=O)[O-])ccc2O)n1 [Example 709]
> 1000 | CC(C)NC(=O)c1csc(-c2c(-c3ccc(F)cc3)noc2CNC(=O)c2cc([N+](=O)[O-])ccc2F)n1 [Example 710]
> 1000 | CC(C)NC(=O)c1csc(-c2c(-c3ccc(F)cc3)noc2CNC(=O)c2ccc(F)c([N+](=O)[O-])c2)n1 [Example 712]
> 1000 | COc1ccc(Cl)cc1C(=O)NCc1onc(-c2ccc(F)cc2)c1-c1nc(C(=O)NC(C)C)cs1 [Example 713]
> 1000 | COc1cc(Cl)ccc1C(=O)NCc1onc(-c2ccc(F)cc2)c1-c1nc(C(=O)NC(C)C)cs1 [Example 714]
> 1000 | CC(C)NC(=O)c1csc(-c2c(-c3ccc(F)cc3)noc2CNC(=O)c2c(O)ccc3ccccc23)n1 [Example 718]
> 1000 | CC(C)NC(=O)c1csc(-c2c(-c3ccc(F)cc3)noc2CNC(=O)c2cc3ccccc3cc2O)n1 [Example 719]
> 1000 | CC(C)NC(=O)c1csc(-c2c(-c3ccc(F)cc3)noc2CNC(=O)c2ccc3ccccc3c2O)n1 [Example 720]
> 1000 | CC(C)NC(=O)c1csc(-c2c(-c3ccc(F)cc3)noc2CNC(=O)c2ccc3cccc(O)c3n2)n1 [Example 721]
> 1000 | CC(C)NC(=O)c1csc(-c2c(-c3ccc(F)cc3)noc2CNC(=O)c2ccccc2C(F)(F)F)n1 [Example 724]
> 1000 | CC(C)NC(=O)c1csc(-c2c(-c3ccc(F)cc3)noc2CNC(=O)CCc2nc3ccccc3[nH]2)n1 [Example 725]
> 1000 | CC(C)NC(=O)c1csc(-c2c(-c3ccc(F)cc3)noc2CNC(=O)c2cccc(Cl)c2Cl)n1 [Example 726]
> 1000 | CC(C)NC(=O)c1csc(-c2c(-c3ccc(F)cc3)noc2CNC(=O)c2ccc(Cl)cc2Cl)n1 [Example 727]
> 1000 | CC(C)NC(=O)c1csc(-c2c(-c3ccc(F)cc3)noc2CNC(=O)c2cc(Cl)ccc2Cl)n1 [Example 728]
